We go through 20 compounds from ChEMBL document CHEMBL4130539, “Novel ureidopropanamide based N-formyl peptide receptor 2 (FPR2) agonists with potential application for central nervous system disorders characterized by neuroinflammation” (Eur J Med Chem, 2017).

As usually defined, the EC50 is the concentration that produces a half-maximal response.

Data set [1] is described as follows: Intrinsic clearance in rat liver microsomes at 10 uM preincubated for 10 mins followed by NADPH addition by liquid chromatographic method. In kind it is ADME, microsome. For orientation: Microsomes from liver hold many membrane-bound enzymes, among them those of drug oxidation.
Data set [2] can be described thus: Metabolic stability in rat liver microsomes assessed as parent compound remaining at 10 uM preincubated for 10 mins followed by NADPH addition measured after 30 mins by liquid chromatographic method. Particulars: 0.5 h; call rule not given here. It is filed as ADME, microsome.
Data set [3] deals with T1, N-formyl peptide receptor 2 (Homo sapiens, UniProt P25090).
T1 sequence (P25090 whole entry): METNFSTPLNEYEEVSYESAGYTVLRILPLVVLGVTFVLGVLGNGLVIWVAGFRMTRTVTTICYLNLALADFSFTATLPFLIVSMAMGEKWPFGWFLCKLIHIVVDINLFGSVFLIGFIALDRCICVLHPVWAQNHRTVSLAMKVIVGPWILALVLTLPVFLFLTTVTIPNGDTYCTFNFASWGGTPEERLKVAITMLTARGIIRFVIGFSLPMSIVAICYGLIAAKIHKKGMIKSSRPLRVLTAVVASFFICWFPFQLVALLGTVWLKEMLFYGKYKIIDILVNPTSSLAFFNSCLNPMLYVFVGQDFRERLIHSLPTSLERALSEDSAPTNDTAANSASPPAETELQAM
As to the kind of experiment: Agonist activity at human FPR2 expressed in human HL60 cells assessed as induction of calcium mobilization measured every 5 secs for 240 secs by Fluo-4-AM dye based fluorometric method. In kind it is functional, cell-based.

The target of data set [4] is T2, N-formyl peptide receptor 2 (Homo sapiens) (UniProt P25090).
T2 sequence (whole entry): T1 sequence (P25090 whole entry)
As to the kind of experiment: Agonist activity at human FPR2 expressed in human HL60 cells assessed as induction of calcium mobilization measured every 5 secs for 240 secs by Fluo-4-AM dye based fluorometric method relative to WKYMVM. In kind it is functional, cell-based.

The target in data set [5] is T2, N-formyl peptide receptor 2 (Homo sapiens). The data set is described as follows: Agonist activity at FPR2 in human neutrophils assessed as induction of calcium mobilization measured every 5 secs for 240 secs by Fluo-4-AM dye based fluorometric method relative to fMLF.
For data set [6], the target named is T3, fMet-Leu-Phe receptor (Homo sapiens, UniProt P21462).
T3 sequence (P21462 whole entry): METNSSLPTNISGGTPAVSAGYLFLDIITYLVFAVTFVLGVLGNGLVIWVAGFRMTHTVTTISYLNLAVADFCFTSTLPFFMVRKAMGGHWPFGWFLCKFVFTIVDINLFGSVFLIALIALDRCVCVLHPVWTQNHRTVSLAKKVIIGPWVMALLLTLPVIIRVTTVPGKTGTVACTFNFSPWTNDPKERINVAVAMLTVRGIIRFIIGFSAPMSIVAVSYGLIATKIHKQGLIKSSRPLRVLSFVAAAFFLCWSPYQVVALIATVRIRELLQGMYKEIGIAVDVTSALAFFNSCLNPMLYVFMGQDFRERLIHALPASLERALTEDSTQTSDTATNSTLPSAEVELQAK
As to the kind of experiment: Agonist activity at human FPR1 expressed in human HL60 cells assessed as induction of calcium mobilization measured every 5 secs for 240 secs by Fluo-4-AM dye based fluorometric method. It is filed as functional, cell-based.

Data set [7] concerns the target T1, N-formyl peptide receptor 2. As to the kind of experiment: Agonist activity at FPR2 in human neutrophils assessed as induction of calcium mobilization measured every 5 secs for 240 secs by Fluo-4-AM dye based fluorometric method. In kind it is functional. (In general: A change in cytosolic calcium serves as a functional read-out for many receptors and channels.)

Data set [8] in a line: Half life in rat liver microsomes at 10 uM preincubated for 10 mins followed by NADPH addition by liquid chromatographic method. In kind it is ADME, microsome.
For data set [9], the target named is T4, fMet-Leu-Phe receptor (Homo sapiens) (UniProt P21462).
T4 sequence (whole entry): T3 sequence (P21462 whole entry)
As to the kind of experiment: Agonist activity at human FPR1 expressed in human HL60 cells assessed as induction of calcium mobilization measured every 5 secs for 240 secs by Fluo-4-AM dye based fluorometric method relative to fMLF. It is filed as functional, cell-based.

`O=C(Nc1ccc([N+](=O)[O-])cc1)N[C@@H](Cc1cccnc1)C(=O)NCC1(c2ccccc2)CC1`: in data set [1], the “Microsomal intrinsic clearance (CLint)” value worked out at 6.3 µL/min/mg. The Stability in data set [2] came out at 51%. Moreover, the EC50 in data set [3] (read-out: EC50) stood at 6.4 µM; in [6] (read-out: EC50), 0.85 µM; in [7] (read-out: EC50), 0.73 µM. Moreover, the Efficacy was determined as 60% in data set [4], 65% in data set [5] and 125% in [9]. The same compound registered a t1/2 in data set [8] of 1.83 h.
Regarding `COc1ccc(NC(=O)N[C@@H](Cc2c[nH]c3ccccc23)C(=O)NCC2(c3ccccc3)CC2)cc1`, the Stability in data set [2] is recorded as 3%. Besides, the EC50 in data set [3] (read-out: EC50) is 0.11 µM; in [6] (read-out: EC50), 0.95 µM; in [7] (read-out: EC50), 1.4 µM.
For the compound `COc1ccc(NC(=O)N[C@@H](Cc2ccc(C#N)cc2)C(=O)NCC2(c3ccc(OC(F)(F)F)cc3)CC2)cc1`, the Stability in [2] is 51%. Moreover, the EC50 result in data set [3], in data set [6] and in [7] was “Not Active” each time.
For `COc1ccc(NC(=O)N[C@@H](Cc2ccc(C#N)cc2)C(=O)NCC2(c3ccc(F)c(Cl)c3)CC2)cc1`, the Stability in [2] stood at 10%. Besides, the values for the EC50 in [3] (read-out: EC50), in data set [6] (read-out: EC50) and in data set [7] (read-out: EC50) were 3.4 µM, 0.45 µM and 0.33 µM, respectively. The Efficacy stood at 60% in data set [4], 155% in data set [5] and 115% in [9].
With `COc1ccc(NC(=O)N[C@H](Cc2ccc(C#N)cc2)C(=O)NCC2(c3ccc(OC(F)(F)F)cc3)CC2)cc1`, the Stability in data set [2] is listed as 43%. The EC50 entry in data set [3], in data set [6] and in data set [7] was “Not Active” each time.
Consider `N#Cc1ccc(C[C@@H](NC(=O)Nc2ccc(F)cc2)C(=O)NCC2(c3ccc(F)c(Cl)c3)CC2)cc1`, for which, in [1], the “Microsomal intrinsic clearance (CLint)” value was found to be 14.7 µL/min/mg. In addition, the Stability in data set [2] was determined as 20%. Further, the EC50 in data set [3] (read-out: EC50) turned out to be 0.3 µM; in data set [6] (read-out: EC50), 5.4 µM; in [7] (read-out: EC50), 1.3 µM. For the same compound, the Efficacy in data set [4] is 90%; in data set [5], 95%; in data set [9], 55%. In [8], the t1/2 stood at 0.783 h.
As for `O=C(Nc1ccccc1)N[C@H](Cc1c[nH]c2ccccc12)C(=O)NCC1(c2ccccc2)CC1`, in [2], the Stability stood at 4%. In addition, the EC50 result in data set [3], in [6] and in [7] was “Not Active” in each case.
With `Cc1ccc(C2(CNC(=O)[C@@H](Cc3ccc(C#N)cc3)NC(=O)Nc3ccc(F)cc3)CC2)cc1F`, the “Microsomal intrinsic clearance (CLint)” value in data set [1] was 10.04 µL/min/mg. Also, the Stability in data set [2] was determined as 37%. Besides, the EC50 entry in data set [3], in [6] and in [7] was “Not Active” in each case. Moreover, in [8], the t1/2 was 0.983 h.
On to `O=C(Nc1ccc(F)cc1)N[C@@H](Cc1c[nH]c2ccccc12)C(=O)NCC1(c2ccccc2)CC1`, for which the Stability in data set [2] was determined as 4%. Also, the EC50 in data set [3] (read-out: EC50) was 2 µM; in data set [6] (read-out: EC50) it was 18.8 µM; in [7], “Not Active”.
On to `COc1ccc(NC(=O)N[C@H](Cc2ccc(C#N)cc2)C(=O)NCC2(c3ccc(F)c(Cl)c3)CC2)cc1`, for which the Stability in data set [2] is on record as 5%. Besides, the 50% effective concentration (EC50) amounted to 1.8 µM in data set [3] (read-out: EC50), 0.63 µM in [6] (read-out: EC50) and 0.73 µM in data set [7] (read-out: EC50). The values for the Efficacy in data set [4], in data set [5] and in data set [9] were 60%, 115% and 100%, respectively.
As to `COc1ccc(NC(=O)N[C@H](Cc2ccc(C#N)cc2)C(=O)NCC2(c3ccc(C)c(F)c3)CC2)cc1`, the Stability in [2] was determined as 10%. Further, the EC50 result in [3], in data set [6] and in [7] was “Not Active” throughout.
With `O=C(Nc1ccccc1)N[C@@H](Cc1c[nH]c2ccccc12)C(=O)NCC1(c2ccccc2)CC1`, the Stability in data set [2] amounted to 5%. The values for the EC50 in data set [3] (read-out: EC50), in data set [6] (read-out: EC50) and in data set [7] (read-out: EC50) were 6.7 µM, 2.4 µM and 1.5 µM, respectively.
For `Cc1ccc(C2(CNC(=O)[C@H](Cc3ccc(C#N)cc3)NC(=O)Nc3ccc(F)cc3)CC2)cc1F`, in that order: 39%, 3 µM, 5.9 µM and 1.7 µM.
For the compound `COc1ccc(NC(=O)N[C@H](Cc2c[nH]c3ccccc23)C(=O)NCC2(c3ccccc3)CC2)cc1`, the Stability in [2] amounted to 4%. The EC50 in data set [3] (read-out: EC50) was 6.5 µM; in data set [6], “Not Active”; in data set [7], “Not Active”.
As for `N#Cc1ccc(C[C@@H](NC(=O)Nc2ccc([N+](=O)[O-])cc2)C(=O)NCC2(c3ccccc3)CC2)cc1`, the “Microsomal intrinsic clearance (CLint)” value in [1] is 7.29 µL/min/mg. The Stability in data set [2] turned out to be 38%. Further, the values for the EC50 in data set [3] (read-out: EC50), in data set [6] (read-out: EC50) and in [7] (read-out: EC50) were 1.5 µM, 4.7 µM and 4.1 µM, respectively. For the same compound, the values for the Efficacy in data set [4], in data set [5] and in [9] were 90%, 150% and 75%, respectively. This compound showed a t1/2 in [8] of 1.58 h.
On to `O=C(Nc1ccc([N+](=O)[O-])cc1)N[C@H](Cc1c[nH]c2ccccc12)C(=O)NCC1(c2ccccc2)CC1`, for which the Stability in data set [2] amounted to 15%.
`COc1ccc(NC(=O)N[C@@H](Cc2ccc(C#N)cc2)C(=O)NCC2(c3ccc(C)c(F)c3)CC2)cc1`: in data set [2], the Stability turned out to be 8%. Further, the results for the 50% effective concentration (EC50) in data set [3] (read-out: EC50), in data set [6] (read-out: EC50) and in [7] (read-out: EC50) were 16.3 µM, 10.3 µM and 1.7 µM, respectively.
In the case of `N#Cc1ccc(C[C@@H](NC(=O)Nc2ccc(F)cc2)C(=O)NCC2(c3ccc(OC(F)(F)F)cc3)CC2)cc1`, in data set [2], the Stability worked out at 88%. The EC50 entry in data set [3], in data set [6] and in [7] was “Not Active” each time.
In the case of `O=C(Nc1ccc(F)cc1)N[C@H](Cc1c[nH]c2ccccc12)C(=O)NCC1(c2ccccc2)CC1`, the EC50 result in data set [3], in data set [6] and in data set [7] was “Not Active” in each case.
On to `N#Cc1ccc(C[C@H](NC(=O)Nc2ccc(F)cc2)C(=O)NCC2(c3ccc(OC(F)(F)F)cc3)CC2)cc1`, for which, in data set [2], the Stability is recorded as 80%. Moreover, the EC50 result in data set [3], in data set [6] and in data set [7] was “Not Active” throughout.
